According to ChEMBL document CHEMBL4507319 (2021):

Key:
[1] = target: Serine/threonine-protein kinase 16 (Homo sapiens) (UniProt O75716); conditions: Compound concentration 1000.0 nM
[2] = target: Alpha-1A adrenergic receptor (Homo sapiens) (UniProt P35348); conditions: Compound concentration 10.0 uM
[3] = target: T1, Mitogen-activated protein kinase kinase kinase 7 (Homo sapiens) (UniProt O43318); conditions: Compound concentration 1000.0 nM
T1 sequence (whole entry): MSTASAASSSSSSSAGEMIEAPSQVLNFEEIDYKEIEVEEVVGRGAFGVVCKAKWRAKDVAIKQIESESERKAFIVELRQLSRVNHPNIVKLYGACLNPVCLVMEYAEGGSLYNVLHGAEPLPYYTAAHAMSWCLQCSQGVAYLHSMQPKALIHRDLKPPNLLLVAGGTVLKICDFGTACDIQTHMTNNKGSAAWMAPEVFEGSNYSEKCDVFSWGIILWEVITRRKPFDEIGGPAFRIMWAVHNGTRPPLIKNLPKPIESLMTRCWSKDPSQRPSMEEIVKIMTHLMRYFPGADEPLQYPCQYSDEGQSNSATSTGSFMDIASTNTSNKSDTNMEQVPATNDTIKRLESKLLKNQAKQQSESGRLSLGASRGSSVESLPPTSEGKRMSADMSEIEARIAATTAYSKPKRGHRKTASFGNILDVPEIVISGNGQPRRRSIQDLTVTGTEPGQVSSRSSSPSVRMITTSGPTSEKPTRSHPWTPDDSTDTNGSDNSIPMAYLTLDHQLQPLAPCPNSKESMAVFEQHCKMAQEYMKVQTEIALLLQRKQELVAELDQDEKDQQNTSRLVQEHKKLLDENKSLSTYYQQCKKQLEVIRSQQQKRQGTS

[4] = target: T2, Inhibitor of nuclear factor kappa-B kinase subunit alpha (Homo sapiens) (UniProt O15111); conditions: Compound concentration 1000.0 nM
T2 sequence (whole entry): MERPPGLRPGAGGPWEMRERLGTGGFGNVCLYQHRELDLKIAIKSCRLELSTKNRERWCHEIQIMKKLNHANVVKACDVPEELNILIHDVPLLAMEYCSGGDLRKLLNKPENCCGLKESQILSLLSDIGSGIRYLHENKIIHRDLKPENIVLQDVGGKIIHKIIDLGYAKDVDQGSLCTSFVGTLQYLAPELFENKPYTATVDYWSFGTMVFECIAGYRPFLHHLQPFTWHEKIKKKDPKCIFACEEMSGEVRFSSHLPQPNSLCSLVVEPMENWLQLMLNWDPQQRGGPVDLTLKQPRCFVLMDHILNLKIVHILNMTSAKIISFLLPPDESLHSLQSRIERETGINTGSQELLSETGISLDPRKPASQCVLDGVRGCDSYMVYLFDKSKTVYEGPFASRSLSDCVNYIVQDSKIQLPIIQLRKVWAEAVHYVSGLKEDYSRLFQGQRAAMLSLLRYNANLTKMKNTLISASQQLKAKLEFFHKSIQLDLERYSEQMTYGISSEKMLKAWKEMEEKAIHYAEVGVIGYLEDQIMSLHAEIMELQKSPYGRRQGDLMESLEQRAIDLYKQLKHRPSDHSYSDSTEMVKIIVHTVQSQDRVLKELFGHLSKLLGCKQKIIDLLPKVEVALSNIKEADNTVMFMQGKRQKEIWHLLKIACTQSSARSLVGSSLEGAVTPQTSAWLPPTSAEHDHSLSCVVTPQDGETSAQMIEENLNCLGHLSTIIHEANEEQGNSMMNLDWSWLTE

[5] = target: Phosphatidylinositol 4-phosphate 3-kinase C2 domain-containing subunit beta (Homo sapiens) (UniProt O00750); conditions: Compound concentration 1000.0 nM
Chain of Phosphatidylinositol 4-phosphate 3-kinase C2 domain-containing subunit beta (Homo sapiens) (O00750 whole entry, the tested form may be a part): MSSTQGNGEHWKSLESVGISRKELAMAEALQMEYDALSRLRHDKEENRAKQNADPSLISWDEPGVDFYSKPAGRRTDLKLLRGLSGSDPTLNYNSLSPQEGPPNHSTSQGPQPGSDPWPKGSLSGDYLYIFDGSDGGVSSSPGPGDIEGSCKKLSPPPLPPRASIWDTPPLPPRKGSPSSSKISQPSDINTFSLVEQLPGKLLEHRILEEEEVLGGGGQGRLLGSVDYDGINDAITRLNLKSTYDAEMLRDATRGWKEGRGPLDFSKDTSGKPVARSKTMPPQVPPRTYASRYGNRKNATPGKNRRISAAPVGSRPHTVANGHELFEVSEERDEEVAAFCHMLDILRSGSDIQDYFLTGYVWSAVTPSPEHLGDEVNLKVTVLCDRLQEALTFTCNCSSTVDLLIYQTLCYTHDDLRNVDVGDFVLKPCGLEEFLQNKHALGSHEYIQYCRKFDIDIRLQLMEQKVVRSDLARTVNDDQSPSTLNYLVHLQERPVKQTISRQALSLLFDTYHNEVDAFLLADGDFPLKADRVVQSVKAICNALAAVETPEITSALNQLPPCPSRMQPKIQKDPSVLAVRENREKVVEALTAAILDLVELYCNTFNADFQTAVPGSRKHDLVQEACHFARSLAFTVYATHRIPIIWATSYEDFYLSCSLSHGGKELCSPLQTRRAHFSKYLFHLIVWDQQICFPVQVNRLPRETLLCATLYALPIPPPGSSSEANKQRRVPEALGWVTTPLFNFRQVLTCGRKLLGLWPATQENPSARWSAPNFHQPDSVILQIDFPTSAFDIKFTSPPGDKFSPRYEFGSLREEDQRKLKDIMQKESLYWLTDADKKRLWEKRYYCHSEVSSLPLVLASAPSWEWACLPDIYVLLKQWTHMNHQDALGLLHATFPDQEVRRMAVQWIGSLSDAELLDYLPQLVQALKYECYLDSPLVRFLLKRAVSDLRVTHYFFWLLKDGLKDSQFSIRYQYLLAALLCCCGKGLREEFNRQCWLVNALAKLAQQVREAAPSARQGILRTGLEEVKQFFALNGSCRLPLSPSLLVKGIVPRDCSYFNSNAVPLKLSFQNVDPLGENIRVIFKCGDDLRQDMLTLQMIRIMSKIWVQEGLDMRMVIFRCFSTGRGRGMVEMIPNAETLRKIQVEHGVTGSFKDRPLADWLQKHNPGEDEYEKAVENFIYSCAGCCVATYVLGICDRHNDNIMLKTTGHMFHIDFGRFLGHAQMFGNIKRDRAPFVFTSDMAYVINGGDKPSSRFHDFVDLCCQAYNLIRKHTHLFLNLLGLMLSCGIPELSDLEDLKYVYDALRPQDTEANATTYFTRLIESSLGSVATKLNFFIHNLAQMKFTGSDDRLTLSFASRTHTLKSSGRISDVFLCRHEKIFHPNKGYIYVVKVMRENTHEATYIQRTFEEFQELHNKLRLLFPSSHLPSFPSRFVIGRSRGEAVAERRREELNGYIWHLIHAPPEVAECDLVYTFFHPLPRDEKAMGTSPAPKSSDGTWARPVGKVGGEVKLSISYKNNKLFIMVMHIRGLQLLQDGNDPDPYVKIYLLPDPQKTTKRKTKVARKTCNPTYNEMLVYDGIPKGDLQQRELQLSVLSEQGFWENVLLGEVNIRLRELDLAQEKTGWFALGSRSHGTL

[6] = target: Angiopoietin-1 receptor (Homo sapiens) (UniProt Q02763); conditions: Compound concentration 1000.0 nM
[7] = target: Serine/threonine-protein kinase MARK1 (Homo sapiens) (UniProt Q9P0L2); conditions: Compound concentration 1000.0 nM
[8] = target: 5-hydroxytryptamine receptor 1E (Homo sapiens) (UniProt P28566); conditions: Compound concentration 10.0 uM
Chain of 5-hydroxytryptamine receptor 1E (Homo sapiens) (P28566 whole entry): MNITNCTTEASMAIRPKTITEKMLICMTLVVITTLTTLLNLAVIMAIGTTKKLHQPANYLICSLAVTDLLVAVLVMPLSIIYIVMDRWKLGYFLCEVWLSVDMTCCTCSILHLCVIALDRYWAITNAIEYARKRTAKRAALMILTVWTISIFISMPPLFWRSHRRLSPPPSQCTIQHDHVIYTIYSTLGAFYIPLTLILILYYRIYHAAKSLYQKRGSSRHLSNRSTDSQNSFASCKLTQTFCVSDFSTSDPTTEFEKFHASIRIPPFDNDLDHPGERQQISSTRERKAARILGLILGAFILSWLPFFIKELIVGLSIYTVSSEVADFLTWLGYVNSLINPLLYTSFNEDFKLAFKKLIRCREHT

[9] = target: T3, Myosin light chain kinase (Homo sapiens) (UniProt Q32MK0); conditions: Compound concentration 1000.0 nM
T3 sequence (whole entry): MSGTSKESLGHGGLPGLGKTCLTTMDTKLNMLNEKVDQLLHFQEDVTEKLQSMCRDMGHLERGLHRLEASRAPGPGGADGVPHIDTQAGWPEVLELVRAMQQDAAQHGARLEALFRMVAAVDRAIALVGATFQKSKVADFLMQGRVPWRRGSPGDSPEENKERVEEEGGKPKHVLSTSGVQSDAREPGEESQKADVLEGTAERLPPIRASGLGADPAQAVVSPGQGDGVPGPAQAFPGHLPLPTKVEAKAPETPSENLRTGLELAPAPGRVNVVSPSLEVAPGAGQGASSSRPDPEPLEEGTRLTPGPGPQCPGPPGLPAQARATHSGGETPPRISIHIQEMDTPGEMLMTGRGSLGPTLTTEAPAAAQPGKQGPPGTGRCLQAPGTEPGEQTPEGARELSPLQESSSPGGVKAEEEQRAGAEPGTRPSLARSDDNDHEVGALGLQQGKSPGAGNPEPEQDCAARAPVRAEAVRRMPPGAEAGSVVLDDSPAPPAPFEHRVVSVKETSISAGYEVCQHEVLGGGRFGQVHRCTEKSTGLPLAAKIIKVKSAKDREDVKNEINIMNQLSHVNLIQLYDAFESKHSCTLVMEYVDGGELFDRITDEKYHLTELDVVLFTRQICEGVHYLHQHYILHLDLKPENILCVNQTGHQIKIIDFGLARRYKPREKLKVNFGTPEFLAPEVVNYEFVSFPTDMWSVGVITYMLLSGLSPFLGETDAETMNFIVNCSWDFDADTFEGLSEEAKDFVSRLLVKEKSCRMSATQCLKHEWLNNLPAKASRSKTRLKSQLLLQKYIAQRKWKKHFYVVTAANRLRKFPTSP

[10] = target: Mitogen-activated protein kinase kinase kinase 3 (Homo sapiens) (UniProt Q99759); conditions: Compound concentration 1000.0 nM
Chain of Mitogen-activated protein kinase kinase kinase 3 (Homo sapiens) (Q99759 whole entry): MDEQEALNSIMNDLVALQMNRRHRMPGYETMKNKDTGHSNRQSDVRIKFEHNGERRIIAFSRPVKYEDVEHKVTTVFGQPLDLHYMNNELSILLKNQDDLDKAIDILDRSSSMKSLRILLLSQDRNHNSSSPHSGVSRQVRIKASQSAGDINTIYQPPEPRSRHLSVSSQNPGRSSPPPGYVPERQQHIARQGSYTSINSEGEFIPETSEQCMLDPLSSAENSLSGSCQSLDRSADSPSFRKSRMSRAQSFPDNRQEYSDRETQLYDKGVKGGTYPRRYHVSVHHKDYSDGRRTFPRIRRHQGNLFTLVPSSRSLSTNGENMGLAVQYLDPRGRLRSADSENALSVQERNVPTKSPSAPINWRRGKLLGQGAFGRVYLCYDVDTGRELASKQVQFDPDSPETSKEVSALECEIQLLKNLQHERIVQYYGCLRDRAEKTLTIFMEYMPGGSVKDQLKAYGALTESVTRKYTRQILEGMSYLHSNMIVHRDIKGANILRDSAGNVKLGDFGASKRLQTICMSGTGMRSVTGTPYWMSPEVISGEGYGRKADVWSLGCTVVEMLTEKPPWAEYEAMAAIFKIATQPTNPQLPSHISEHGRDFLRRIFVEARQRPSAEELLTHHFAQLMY

[11] = target: Serine/threonine-protein kinase 32B (Homo sapiens) (UniProt Q9NY57); conditions: Compound concentration 1000.0 nM
Chain of Serine/threonine-protein kinase 32B (Homo sapiens) (Q9NY57 whole entry): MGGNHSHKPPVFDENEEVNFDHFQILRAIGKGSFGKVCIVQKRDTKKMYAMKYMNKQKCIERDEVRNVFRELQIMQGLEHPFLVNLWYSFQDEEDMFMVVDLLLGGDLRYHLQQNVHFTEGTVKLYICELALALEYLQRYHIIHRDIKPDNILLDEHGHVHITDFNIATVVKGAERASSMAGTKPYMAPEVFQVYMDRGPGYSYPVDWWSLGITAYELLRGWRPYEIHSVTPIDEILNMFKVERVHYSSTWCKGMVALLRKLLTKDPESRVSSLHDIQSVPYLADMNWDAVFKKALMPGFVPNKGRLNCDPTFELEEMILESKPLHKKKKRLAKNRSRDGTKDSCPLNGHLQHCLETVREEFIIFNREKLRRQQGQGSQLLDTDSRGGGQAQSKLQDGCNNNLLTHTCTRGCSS

[12] = target: Homeodomain-interacting protein kinase 1 (Homo sapiens) (UniProt Q86Z02); conditions: Compound concentration 1000.0 nM
Chain of Homeodomain-interacting protein kinase 1 (Homo sapiens) (Q86Z02 whole entry, looked up): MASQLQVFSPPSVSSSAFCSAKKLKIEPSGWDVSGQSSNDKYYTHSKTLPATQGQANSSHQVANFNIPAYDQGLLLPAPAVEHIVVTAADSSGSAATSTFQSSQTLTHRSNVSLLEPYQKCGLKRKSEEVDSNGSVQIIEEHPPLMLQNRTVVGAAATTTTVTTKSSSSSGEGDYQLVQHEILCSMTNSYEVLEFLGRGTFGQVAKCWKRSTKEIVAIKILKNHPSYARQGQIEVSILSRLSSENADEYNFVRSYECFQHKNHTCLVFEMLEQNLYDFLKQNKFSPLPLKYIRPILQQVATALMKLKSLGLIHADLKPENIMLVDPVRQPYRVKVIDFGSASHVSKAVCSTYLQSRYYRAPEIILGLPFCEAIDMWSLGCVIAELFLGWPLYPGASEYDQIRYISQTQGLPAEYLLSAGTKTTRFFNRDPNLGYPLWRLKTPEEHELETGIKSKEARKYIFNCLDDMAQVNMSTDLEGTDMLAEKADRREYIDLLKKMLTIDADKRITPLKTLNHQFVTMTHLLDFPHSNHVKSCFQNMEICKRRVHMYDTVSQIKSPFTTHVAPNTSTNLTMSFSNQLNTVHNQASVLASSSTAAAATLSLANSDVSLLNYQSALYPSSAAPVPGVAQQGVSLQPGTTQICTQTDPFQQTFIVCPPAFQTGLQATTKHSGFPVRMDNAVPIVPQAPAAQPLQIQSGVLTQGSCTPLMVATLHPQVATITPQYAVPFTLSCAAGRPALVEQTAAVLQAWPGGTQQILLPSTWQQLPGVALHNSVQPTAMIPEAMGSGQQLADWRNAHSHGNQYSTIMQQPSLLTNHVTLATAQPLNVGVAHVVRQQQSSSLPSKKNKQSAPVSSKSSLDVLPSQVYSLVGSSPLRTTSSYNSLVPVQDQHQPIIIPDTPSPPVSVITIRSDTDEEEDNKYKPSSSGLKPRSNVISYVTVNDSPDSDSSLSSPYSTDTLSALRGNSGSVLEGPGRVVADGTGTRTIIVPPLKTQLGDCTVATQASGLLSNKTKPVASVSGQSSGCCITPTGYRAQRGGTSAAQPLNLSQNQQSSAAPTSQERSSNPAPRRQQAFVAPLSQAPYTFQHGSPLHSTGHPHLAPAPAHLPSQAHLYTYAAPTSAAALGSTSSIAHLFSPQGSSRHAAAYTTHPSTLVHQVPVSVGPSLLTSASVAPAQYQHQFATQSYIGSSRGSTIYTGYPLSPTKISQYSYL

[13] = target: Tyrosine-protein kinase Blk (Homo sapiens) (UniProt P51451); conditions: Compound concentration 1000.0 nM

Chain of Serine/threonine-protein kinase 16 (Homo sapiens) (O75716 whole entry): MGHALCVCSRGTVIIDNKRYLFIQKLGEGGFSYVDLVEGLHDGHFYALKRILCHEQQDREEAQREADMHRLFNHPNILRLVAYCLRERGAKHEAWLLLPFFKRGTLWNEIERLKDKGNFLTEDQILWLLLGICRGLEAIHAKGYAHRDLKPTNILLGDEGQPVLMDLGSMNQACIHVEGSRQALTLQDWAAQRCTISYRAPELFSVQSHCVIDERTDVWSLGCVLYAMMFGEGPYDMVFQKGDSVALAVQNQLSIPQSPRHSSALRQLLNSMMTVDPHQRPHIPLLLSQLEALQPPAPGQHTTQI
Chain of Alpha-1A adrenergic receptor (Homo sapiens) (P35348 whole entry): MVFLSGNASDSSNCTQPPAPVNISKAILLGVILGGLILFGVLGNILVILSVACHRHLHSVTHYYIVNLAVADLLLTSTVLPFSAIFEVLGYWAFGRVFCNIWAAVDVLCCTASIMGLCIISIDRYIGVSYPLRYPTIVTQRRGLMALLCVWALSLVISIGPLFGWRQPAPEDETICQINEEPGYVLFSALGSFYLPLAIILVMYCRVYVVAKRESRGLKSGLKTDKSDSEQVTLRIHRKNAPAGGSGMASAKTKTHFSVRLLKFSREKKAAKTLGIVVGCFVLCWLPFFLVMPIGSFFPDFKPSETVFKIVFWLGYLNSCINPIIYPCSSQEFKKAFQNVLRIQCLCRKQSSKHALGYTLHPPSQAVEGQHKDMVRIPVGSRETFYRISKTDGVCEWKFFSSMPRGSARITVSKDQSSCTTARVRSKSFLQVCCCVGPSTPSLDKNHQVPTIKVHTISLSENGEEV

Compound | residual activity [1] [%] | inhibition [2] [%] | residual activity [3] [%] | residual activity [4] [%] | residual activity [5] [%] | residual activity [6] [%] | residual activity [7] [%] | inhibition [8] [%] | residual activity [9] [%] | residual activity [10] [%] | residual activity [11] [%] | residual activity [12] [%] | residual activity [13] [%]
CCc1ccccc1C(=O)Nc1n[nH]c2c(C)c(F)c(C3C(C#N)=C(C)N(C)C(C)=C3C#N)cc12 [BAY-3827] | 79 | 6.85 | 92 | 87 | 100 | 91 | 36 | 2.66 | 100 | 100 | 98 | 99 | 100
CC1=C(C#N)C(c2ccc3c(c2)c(NC(=O)c2ccccc2C)nn3C)C(C#N)=C(C)N1 [BAY-974] | 83 | 1.96 | 74 | 77 | 76 | 98 | 100 | 11.4 | 86 | 77 | 100 | 71 | 82
